From patent publication US9206156B2, “Substituted indole derivatives” (GRÜNENTHAL GMBH, priority 2008, dated 2015) come the findings set out here.

Test [1] deals with T1, ORL1 receptor (Homo sapiens, UniProt P41146).
T1 construct: expressed in transfected cells; host or cells: CHO (recombinant CHO-ORL1 cells), membranes
Kind of test: ORL1 receptor binding assay with 3H-nociceptin/orphanin FQ (WGA-SPA beads). Particulars: c=1 μM test substance; 0.5 nM 3H-nociceptin/orphanin FQ; membranes of recombinant CHO-ORL1 cells. Here is the method:
Measurement of ORL1 Binding
The cyclohexane derivatives having the general formula I were investigated in a receptor binding assay with ^3H-nociceptin/orphanin FQ with membranes of recombinant CHO—ORL1 cells. This test system was conducted in accordance with the method described by Ardati et al. (Mol. Pharmacol., 51, 1997, p. 816-824). The concentration of ^3H-nociceptin/orphanin FQ in these tests was 0.5 nM. The binding assays were carried out with 20 μg amounts of membrane protein per 200 μl batch in 50 mM Hepes, pH 7.4, 10 mM MgCl2 and 1 mM EDTA. The binding to the ORL1 receptor was determined using 1 mg amounts of WGA-SPA beads (Amersham-Pharmacia, Freiburg, Germany), by incubation of the batch for one hour at room temperature and subsequent measurement in a Trilux scintillation counter (Wallac, Finland). The affinity is given in Table 1 as the nanomolar Ki value or in % inhibition at c=1 μM.

The target of test [2] is T2, human μ-opiate receptor (Homo sapiens, UniProt P35372).
T2 construct: purchased NEN, Zaventem, Belgium RB-HOM; host or cells: CHO-K1 cells (membrane preparation)
T2 sequence (P35372 whole entry): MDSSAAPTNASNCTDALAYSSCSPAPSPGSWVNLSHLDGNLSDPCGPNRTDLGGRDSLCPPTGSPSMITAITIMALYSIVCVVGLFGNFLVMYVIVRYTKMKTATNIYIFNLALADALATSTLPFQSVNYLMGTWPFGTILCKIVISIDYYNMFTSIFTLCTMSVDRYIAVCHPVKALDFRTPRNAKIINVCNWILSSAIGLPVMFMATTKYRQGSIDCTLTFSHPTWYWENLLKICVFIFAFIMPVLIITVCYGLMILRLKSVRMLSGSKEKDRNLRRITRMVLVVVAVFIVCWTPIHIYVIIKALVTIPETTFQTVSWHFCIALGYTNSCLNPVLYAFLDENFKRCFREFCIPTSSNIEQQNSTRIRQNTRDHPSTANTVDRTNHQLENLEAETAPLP
Kind of test: μ-opiate receptor binding assay with [3H] naloxone (WGA-SPA beads). As to conditions: 1 μmol/l test substance, 1 nmol/l [3H] naloxone, CHO-K1 cell membranes expressing human μ-opiate receptor. Here is the method:
The receptor affinity to the human μ-opiate receptor was determined in a homogeneous batch in microtitre plates. To this end, dilution series of the substituted indole derivative to be tested were incubated for 90 minutes at room temperature with a receptor membrane preparation (15-40 μg protein per 250 μl incubation batch) of CHO-K1 cells, which express the human μ-opiate receptor (RB—HOM receptor membrane preparation from NEN, Zaventem, Belgium), in the presence of 1 nmol/l of the radioactive ligand [^3H] naloxone (NET719, NEN, Zaventem, Belgium) and 1 mg of WGA-SPA beads (wheat germ agglutinin SPA beads from Amersham/Pharmacia, Freiburg, Germany) in a total volume of 250 μl. 50 mmol/l tris-HCl supplemented with 0.05 wt. % sodium azide and 0.06 wt. % bovine serum albumin were used as the incubation buffer. In order to determine the non-specific binding, 25 μmol/l of naloxone were also added. At the end of the ninety-minute incubation period the microtitre plates were centrifuged for 20 minutes at 1000 g and the radioactivity was measured in a β counter (Microbeta-Trilux, PerkinElmer Wallac, Freiburg, Germany). The percentage displacement of the radioactive ligand from its binding to the human μ-opiate receptor was determined at a test substance concentration of 1 μmol/l and stated as the percentage inhibition (% inhibition) of the specific binding. In some cases the percentage displacement due to differing concentrations of the compounds having the general formula I to be tested was used to calculate the IC50 inhibition concentrations which bring about a 50-percent displacement of the radioactive ligand. Ki values for the test substances were obtained by extrapolation using the Cheng-Prusoff equation.

In general, inhibition refers to how much of the control response was suppressed.

T1 sequence (P41146 whole entry): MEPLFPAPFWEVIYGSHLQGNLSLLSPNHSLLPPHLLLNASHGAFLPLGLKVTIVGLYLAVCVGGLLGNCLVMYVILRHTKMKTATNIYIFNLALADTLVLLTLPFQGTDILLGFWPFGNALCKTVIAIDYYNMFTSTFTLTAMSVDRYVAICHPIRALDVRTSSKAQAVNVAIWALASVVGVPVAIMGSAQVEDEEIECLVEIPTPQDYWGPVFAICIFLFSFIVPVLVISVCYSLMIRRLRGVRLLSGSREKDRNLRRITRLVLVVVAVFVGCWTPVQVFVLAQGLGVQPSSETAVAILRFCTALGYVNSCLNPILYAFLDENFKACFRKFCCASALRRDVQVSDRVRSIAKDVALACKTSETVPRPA

As to `CN(CCCN1CCC(c2cccs2)(N(C)C)CC1)C(=O)c1c[nH]c2ccccc12` [Example 11, N-(3-(4-(Dimethylamino)-4-(thiophen-2-yl)piperidin-1-yl)propyl)-N-methyl-1H-indole-3-carboxamide], the figures for the inhibition at 1 µM in test [1] and in test [2] were 80% and 86%, respectively.

Regarding `CN(CCN1CCC(c2ccccc2)(N(C)C)CC1)C(=O)c1c[nH]c2ccccc12` [Example 12, N-(2-(4-(Dimethylamino)-4-phenylpiperidin-1-yl)ethyl)-N-methyl-1H-indole-3-carboxamide], the figures for the inhibition at 1 µM in test [1] and in test [2] were 67% and 84%, respectively.

On to `CN(CCCN1CCC(c2cccs2)(N(C)C)CC1)C(=O)CCc1cn(C)c2ccccc12` [Example 13, N-(3-(4-(Dimethylamino)-4-(thiophen-2-yl)piperidin-1-yl)propyl)-N-methyl-3-(1-methyl-1H-indol-3-yl)propanamide], for which the values for the inhibition at 1 µM in test [1] and in test [2] were 35% and 80%, respectively.

`CN(CCN1CCC(c2ccccc2)(N(C)C)CC1)C(=O)CCc1cn(C)c2ccccc12` [Example 14, N-(2-(4-(Dimethylamino)-4-phenylpiperidin-1-yl)ethyl)-N-methyl-3-(1-methyl-1H-indol-3-yl)propanamide]: the values for the inhibition at 1 µM in test [1] and in test [2] were 48% and 73%, respectively.

`CN(CCCN1CCC(c2cccs2)(N(C)C)CC1)C(=O)c1cc2cc(F)ccc2[nH]1` [Example 15, N-(3-(4-(Dimethylamino)-4-(thiophen-2-yl)piperidin-1-yl)propyl)-5-fluoro-N-methyl-1H-indole-2-carboxamide]: the figures for the inhibition at 1 µM in test [1] and in test [2] were 58% and 88%, respectively.

In the case of `CN(CCN1CCC(c2ccccc2)(N(C)C)CC1)C(=O)c1cc2cc(F)ccc2[nH]1` [Example 16, N-(2-(4-(Dimethylamino)-4-phenylpiperidin-1-yl)ethyl)-5-fluoro-N-methyl-1H-indole-2-carboxamide], the inhibition at 1 µM in test [1] was 89%; in test [2], 94%.

For the compound `CN(CCCN1CCC(c2cccs2)(N(C)C)CC1)C(=O)c1ccc2cc[nH]c2c1` [Example 17, N-(3-(4-(Dimethylamino)-4-(thiophen-2-yl)piperidin-1-yl)propyl)-N-methyl-1H-indole-6-carboxamide], the inhibition at 1 µM in test [1] is 38%; in test [2], 70%.

With `CN(CCN1CCC(c2ccccc2)(N(C)C)CC1)C(=O)c1ccc2cc[nH]c2c1` [Example 18, N-(2-(4-(Dimethylamino)-4-phenylpiperidin-1-yl)ethyl)-N-methyl-1H-indole-6-carboxamide], the figures for the inhibition at 1 µM in test [1] and in test [2] were 82% and 95%, respectively.

With `CC(CC(=O)N(C)CCCN1CCC(c2cccs2)(N(C)C)CC1)c1c[nH]c2ccccc12` (stereo not shown) [Example 19, N-(3-(4-(Dimethylamino)-4-(thiophen-2-yl)piperidin-1-yl)propyl)-3-(1H-indol-3-yl)-N-methylbutanamide], the inhibition at 1 µM in test [1] amounted to 59%; in test [2], 89%.

`CC(CC(=O)N(C)CCN1CCC(c2ccccc2)(N(C)C)CC1)c1c[nH]c2ccccc12` (stereo not shown) [Example 20, N-(2-(4-(Dimethylamino)-4-phenylpiperidin-1-yl)ethyl)-3-(1H-indol-3-yl)-N methylbutanamide]: the inhibition at 1 µM in test [1] stood at 68%; in test [2] it was 88%.

As for `CN(CCCN1CCC(c2cccs2)(N(C)C)CC1)C(=O)CCc1c[nH]c2ccccc12` [Example 21, N-(3-(4-(Dimethylamino)-4-(thiophen-2-yl)piperidin-1-yl)propyl)-3-(1H-indol-3-yl)-N-methylpropanamide], the results for the inhibition at 1 µM in test [1] and in test [2] were 62% and 87%, respectively.

With `COc1ccc2[nH]c(C(=O)N(C)CCCN3CCC(c4cccs4)(N(C)C)CC3)cc2c1` [Example 22, N-(3-(4-(Dimethylamino)-4-(thiophen-2-yl)piperidin-1-yl)propyl)-5-methoxy-N-methyl-1H-indole-2-carboxamide], the values for the inhibition at 1 µM in test [1] and in test [2] were 25% and 70%, respectively.

Regarding `CC(C)C(CC(=O)N(C)CCCN1CCC(c2cccs2)(N(C)C)CC1)c1c[nH]c2ccccc12` (stereo not shown) [Example 23, N-(3-(4-(Dimethylamino)-4-(thiophen-2-yl)piperidin-1-yl)propyl)-3-(1H-indol-3-yl)-N,4-dimethylpentanamide], the inhibition at 1 µM in test [1] was 53%; in test [2], 86%.

In the case of `CC(C)C(CC(=O)N(C)CCN1CCC(c2ccccc2)(N(C)C)CC1)c1c[nH]c2ccccc12` (stereo not shown) [Example 24, N-(2-(4-(Dimethylamino)-4-phenylpiperidin-1-yl)ethyl)-3-(1H-indol-3-yl)-N,4-dimethylpentanamide], the inhibition at 1 µM is 84% in test [1] and 97% in test [2].

As to `CN(CCN1CCC(c2ccccc2)(N(C)C)CC1)C(=O)C1CCCc2c1[nH]c1ccc(Cl)cc21` (stereo not shown) [Example 25, 6-Chloro-N-(2-(4-(dimethylamino)-4-phenylpiperidin-1-yl)ethyl)-N-methyl-2,3,4,9-tetrahydro-1H-carbazole-1-carboxamide], the “% Inhibition (ORL1) at 1 μM” value in test [1] is reported as 62%. Moreover, the “% Inhibition (μ) at 1 μM” value in test [2] is listed as 86%.

With `CN(CCCN1CCC(c2cccs2)(N(C)C)CC1)C(=O)Cc1c[nH]c2cc(F)ccc12` [Example 26, N-(3-(4-(Dimethylamino)-4-(thiophen-2-yl)piperidin-1-yl)propyl)-2-(6-fluoro-1H-indol-3-yl)-N-methylacetamide], the results for the inhibition at 1 µM in test [1] and in test [2] were 59% and 88%, respectively.

For `CN(CCN1CCC(c2ccccc2)(N(C)C)CC1)C(=O)Cc1c[nH]c2cc(F)ccc12` [Example 27, N-(2-(4-(Dimethylamino)-4-phenylpiperidin-1-yl)ethyl)-2-(6-fluoro-1H-indol-3-yl)-N-methylacetamide], the inhibition at 1 µM in test [1] was 93%; in test [2], 98%.

Turning to `CN(CCCN1CCC(c2cccs2)(N(C)C)CC1)C(=O)c1ccc2ccn(C)c2c1` [Example 28, N-(3-(4-(Dimethylamino)-4-(thiophen-2-yl)piperidin-1-yl)propyl)-N,1-dimethyl-1H-indole-6-carboxamide], the inhibition at 1 µM in test [1] is 36%; in test [2], 88%.

On to `CN(CCN1CCC(c2ccccc2)(N(C)C)CC1)C(=O)c1ccc2ccn(C)c2c1` [Example 29, N-(2-(4-(Dimethylamino)-4-phenylpiperidin-1-yl)ethyl)-N,1-dimethyl-1H-indole-6-carboxamide], for which, in test [1], the “% Inhibition (ORL1) at 1 μM” value amounted to 51%. The “% Inhibition (μ) at 1 μM” value in test [2] stood at 94%.

Take `CN(CCCN1CCC(c2cccs2)(N(C)C)CC1)C(=O)c1cccc2c1ccn2C` [Example 30, N-(3-(4-(Dimethylamino)-4-(thiophen-2-yl)piperidin-1-yl)propyl)-N,1-dimethyl-1H-indole-4-carboxamide]: the figures for the inhibition at 1 µM in test [1] and in test [2] were 21% and 78%, respectively.

Turning to `CN(CCN1CCC(c2ccccc2)(N(C)C)CC1)C(=O)c1cccc2c1ccn2C` [Example 31, N-(2-(4-(Dimethylamino)-4-phenylpiperidin-1-yl)ethyl)-N,1-dimethyl-1H-indole-4-carboxamide], the inhibition at 1 µM turned out to be 35% in test [1] and 88% in test [2].

Turning to `CCCCC1(N(C)C)CCN(CCN(C)C(=O)CC(c2c[nH]c3ccccc23)C(C)C)CC1` (stereo not shown) [Example 33, N-(2-(4-Butyl-4-(dimethylamino)piperidin-1-yl)ethyl)-3-(1H-indol-3-yl)-N,4-dimethylpentanamide], the inhibition at 1 µM in test [1] was found to be 27%; in test [2], 94%.

As to `CC(C)C(CC(=O)N(C)CCCN1CCC(c2ccccc2)(N(C)C)CC1)c1c[nH]c2ccccc12` (stereo not shown) [Example 34, N-(3-(4-(Dimethylamino)-4-phenylpiperidin-1-yl)propyl)-3-(1H-indol-3-yl)-N,4-dimethylpentanamide], the inhibition at 1 µM in test [1] turned out to be 43%; in test [2] it was 88%.
